Values of other authors in patent publication US20220323356A1, “METAL (HYDR)OXIDE COMPOSITE COMPRISING POORLY SOLUBLE DRUG, METHOD FOR PREPARING SAME, AND PHARMACEUTICAL COMPOSITION COMPRISING SAME” (priority 2020, published 2022).
Structures can show the parent of a compound that is named as a salt. *1 amine or outer side, *2 acyl side, *3 side chain or, on linkers, in order; H or OH if unused. Where a SMILES comes first, the peptide text is derived from it. Bridges are numbered along the chain shown (N, C = ends). [ ]: non-standard residue; d: D form. The star is where a group is joined. pTerphenylCO(4''-OnC5H11) = CCCCCOc1ccc(-c2ccc(-c3ccc(C(=O)*)cc3)cc2)cc1; Orn(4R-OH,5R-OH) = O=C([C@H](C[C@@H](O)[C@@H](O)N[*:3])N[*:1])[*:2]; hTyr(3S-OH,4S-OH) = N[C@H](C(=O)O)[C@H](O)[C@@H](O)c1ccc(O)cc1; Pro(3S-OH,4S-Me) = C[C@H]1CN[C@H](C(=O)O)[C@H]1O; Hyp = O=C(O)[C@@H]1C[C@@H](O)CN1

Settings: in vivo; cited from earlier work

Row | Compound | bioavailability (%)
1 | C[C@]12CC[C@H](O)CC1=CC[C@@H]1[C@@H]2CC[C@]2(C)C(c3cccnc3)=CC[C@@H]12 [Abiraterone] | <10%
2 | O=C1O[C@H]([C@@H](O)CO)C(O)=C1O [Ascorbic acid] | 69%
3 | CNC(=O)c1ccccc1Sc1ccc2c(/C=C/c3ccccn3)n[nH]c2c1 [Axitinib] | 58%
4 | COc1cc(Nc2c(C#N)cnc3cc(OCCCN4CCN(C)CC4)c(OC)cc23)c(Cl)cc1Cl [Bosutinib] | 34%
5 | COc1cc2nccc(Oc3ccc(NC(=O)C4(C(=O)Nc5ccc(F)cc5)CC4)cc3)c2cc1OC [Cabozantinib] | 74-93%
6 | O=c1[nH]cc(F)c(=O)[nH]1 [Fluorouracil] | 28%
7 | CC(=O)[C@]1(O)Cc2c(O)c3c(c(O)c2[C@@H](O[C@H]2C[C@H](N)[C@H](O)[C@H](C)O2)C1)C(=O)c1ccccc1C3=O [Idarubicin] | 20-25%
8 | CC(=O)O[C@H]1C(=O)[C@@]2(C)[C@H]([C@H](OC(=O)c3ccccc3)[C@]3(O)C[C@H](OC(=O)[C@H](O)[C@@H](NC(=O)c4ccccc4)c4ccccc4)C(C)=C1C3(C)C)[C@]1(OC(C)=O)CO[C@@H]1C[C@@H]2O [Paclitaxel] | 30%
9 | CCN(CC)CCOc1ccc2c(c1)C(=O)c1cc(OCCN(CC)CC)ccc1-2 [Tilorone] | 60%
10 | CC[C@@]1(O)C(=O)OCc2c1cc1n(c2=O)Cc2cc3c(CN(C)C)c(O)ccc3nc2-1 [Topotecan] | 30-44%
11 | CCN1CCN(Cc2ccc(Nc3ncc(F)c(-c4cc(F)c5nc(C)n(C(C)C)c5c4)n3)nc2)CC1 [abemaciclib(USAN), abemaciclib] | 45%
12 | CC(=O)N[C@@H](CS)C(=O)O [acetylcysteine] | 10%
13 | Oc1ncnc2[nH]ncc12 [allopurinol] | 67%
14 | CCN(CC)Cc1cc(Nc2ccnc3cc(Cl)ccc23)ccc1O [amodiaquine] | 22%
15 | CCCCCOc1ccc(-c2ccc(-c3ccc(C(=O)N[C@H]4C[C@@H](O)[C@@H](O)NC(=O)[C@@H]5[C@@H](O)[C@@H](C)CN5C(=O)[C@H]([C@@H](C)O)NC(=O)[C@H]([C@H](O)[C@@H](O)c5ccc(O)cc5)NC(=O)[C@@H]5C[C@@H](O)CN5C(=O)[C@H]([C@@H](C)O)NC4=O)cc3)cc2)cc1 [anidulafungin(LY303366), anidulafungin] ({pTerphenylCO(4''-OnC5H11)}-[Orn(4R-OH,5R-OH)]T[Hyp][hTyr(3S-OH,4S-OH)]T[Pro(3S-OH,4S-Me)]; lactam 1-C) | 2~7%
16 | COC(=O)N[C@H](C(=O)N[C@@H](Cc1ccccc1)[C@@H](O)CN(Cc1ccc(-c2ccccn2)cc1)NC(=O)[C@@H](NC(=O)OC)C(C)(C)C)C(C)(C)C [atazanavir] | 60%
17 | Cc1c(-c2ccc(O)cc2)n(Cc2ccc(OCCN3CCCCCC3)cc2)c2ccc(O)cc12 [bazedoxifene] | 6%
18 | COc1cc2c3cc1Oc1c(OC)c(OC)cc4c1[C@@H](Cc1ccc(O)c(c1)Oc1ccc(cc1)C[C@@H]3N(C)CC2)N(C)CC4 [berbamine] | 30%
19 | N.N.O=C([O-])C1(C(=O)[O-])CCC1.[Pt+2] [carboplatin] | 1.16%
20 | COc1ccc2cc1Oc1ccc(cc1)C[C@H]1c3c(cc4c(c3Oc3cc5c(cc3OC)CCN(C)[C@@H]5C2)OCO4)CCN1C [cepharanthine] | 5%
21 | Cc1cc(Nc2ncc(Cl)c(Nc3ccccc3S(=O)(=O)C(C)C)n2)c(OC(C)C)cc1C1CCNCC1 [ceritinib(LDK378), ceritinib] | 50%

Row | Compound | bioavailability (%)
22 | CCN(CC)CCCC(C)Nc1ccnc2cc(Cl)ccc12 (centres unmarked) [chloroquine] | 50~100%
23 | CC(C)C(=O)OCC(=O)[C@@]12O[C@H](C3CCCCC3)O[C@@H]1C[C@H]1[C@@H]3CCC4=CC(=O)C=C[C@]4(C)[C@H]3[C@@H](O)C[C@@]12C [ciclesonide] | <1%
24 | CCN(CC)CCOc1ccc(C(=C(Cl)c2ccccc2)c2ccccc2)cc1 [clomiphene] | 90%
25 | CC(C)(C)c1nc(-c2cccc(NS(=O)(=O)c3c(F)cccc3F)c2F)c(-c2ccnc(N)n2)s1 [dabrafenib] | 95%
26 | C[C@H]1O[C@@H](O[C@H]2[C@@H](O)C[C@H](O[C@H]3[C@@H](O)C[C@H](O[C@H]4CC[C@@]5(C)[C@H](CC[C@@H]6[C@@H]5CC[C@]5(C)[C@@H](C7=CC(=O)OC7)CC[C@]65O)C4)O[C@@H]3C)O[C@@H]2C)C[C@H](O)[C@@H]1O [digitoxin] | 98%
27 | C[C@H]1O[C@@H](O[C@H]2[C@@H](O)C[C@H](O[C@H]3[C@@H](O)C[C@H](O[C@H]4CC[C@@]5(C)[C@H](CC[C@@H]6[C@@H]5C[C@@H](O)[C@]5(C)[C@@H](C7=CC(=O)OC7)CC[C@]65O)C4)O[C@@H]3C)O[C@@H]2C)C[C@H](O)[C@@H]1O [digoxin] | 50~90%
28 | COc1cccc2c1C(=O)c1c(O)c3c(c(O)c1C2=O)C[C@@](O)(C(=O)CO)C[C@@H]3O[C@H]1C[C@H](N)[C@H](O)[C@H](C)O1 [doxorubicin] | 5%
29 | CC/C(=C(/c1ccc(OCCN(C)C)cc1)c1cccc(O)c1)c1ccccc1 [droloxifene] | 2%
30 | CCCCc1oc2ccc(NS(C)(=O)=O)cc2c1C(=O)c1ccc(OCCCN(CCCC)CCCC)cc1 [dronedarone] | 15%
31 | CC1=NN(c2ccc(C)c(C)c2)C(=O)/C1=N\Nc1cccc(-c2cccc(C(=O)O)c2)c1O [eltrombopag] | 52%
32 | C#Cc1cccc(Nc2ncnc3cc(OCCOC)c(OCCOC)cc23)c1 [erlotinib] | 59%
33 | CO[C@H]1C[C@@H]2CC[C@@H](C)[C@@](O)(O2)C(=O)C(=O)N2CCCC[C@H]2C(=O)O[C@H]([C@H](C)C[C@@H]2CC[C@@H](OCCO)[C@H](OC)C2)CC(=O)[C@H](C)/C=C(\C)[C@@H](O)[C@@H](OC)C(=O)[C@H](C)C[C@H](C)/C=C/C=C/C=C/1C [everolimus] | 5%
34 | NC(=O)c1nc(F)c[nH]c1=O [favipiravir] | 98%
35 | CCc1nc(C(N)=O)c(Nc2ccc(N3CCC(N4CCN(C)CC4)CC3)c(OC)c2)nc1NC1CCOCC1 [gilteritinib] | 60%
36 | Oc1c(Cl)cc(Cl)c(Cl)c1Cc1c(O)c(Cl)cc(Cl)c1Cl [hexachlorophene] | 4~10%
37 | CCN(CCO)CCCC(C)Nc1ccnc2cc(Cl)ccc12 (centres unmarked) [hydroxychloroquine] | 70%
38 | CC(=O)[C@@]1(O)CC[C@H]2[C@@H]3CCC4=CC(=O)CC[C@]4(C)[C@H]3CC[C@@]21C [hydroxyprogesterone] | 3%
39 | COC1=C(OC)C(=O)C(CCCCCCCCCCO)=C(C)C1=O [idebenone] | <1%
40 | CC(C)(C)c1cc(C(C)(C)C)c(NC(=O)c2c[nH]c3ccccc3c2=O)cc1O [ivacaftor] | 20~30%
41 | CS(=O)(=O)CCNCc1ccc(-c2ccc3ncnc(Nc4ccc(OCc5cccc(F)c5)c(Cl)c4)c3c2)o1 [lapatinib] | 60%
42 | N#Cc1cc(NC(=O)C(=O)O)c(Cl)c(NC(=O)C(=O)O)c1 [lodoxamide] | 71%

Row | Compound | bioavailability (%)
43 | CN(C)C(=O)C(CCN1CCC(O)(c2ccc(Cl)cc2)CC1)(c1ccccc1)c1ccccc1 [loperamide] | 0.3%
44 | Cc1cccc(C)c1OCC(=O)N[C@@H](Cc1ccccc1)[C@@H](O)C[C@H](Cc1ccccc1)NC(=O)[C@H](C(C)C)N1CCCNC1=O [lopinavir] | 25%
45 | OC(c1cc(C(F)(F)F)nc2c(C(F)(F)F)cccc12)C1CCCCN1 (centres unmarked) [mefloquine] | 85%
46 | COc1ccc2[nH]cc(CCNC(C)=O)c2c1 [melatonin] | 15%
47 | O=C(Nc1ccc([N+](=O)[O-])cc1Cl)c1cc(Cl)ccc1O [niclosamide] | 10%
48 | Cc1cn(-c2cc(NC(=O)c3ccc(C)c(Nc4nccc(-c5cccnc5)n4)c3)cc(C(F)(F)F)c2)cn1 [nilotinib] | 30%
49 | C=CC(=O)Nc1cc(Nc2nccc(-c3cn(C)c4ccccc34)n2)c(OC)cc1N(C)CCN(C)C [osimertinib(AZD-9291), osimertinib] | 70%
50 | Cc1ccc(Nc2nccc(N(C)c3ccc4c(C)n(C)nc4c3)n2)cc1S(N)(=O)=O [pazopanib] | 14-39%
51 | CC(=O)CCCCn1c(=O)c2c(ncn2C)n(C)c1=O [pentoxifylline] | 20%
52 | C1CCC(C(CC2CCCCN2)C2CCCCC2)CC1 (centres unmarked) [perhexiline maleate] | 80%
53 | CCCN[C@H]1CCc2nc(N)sc2C1 [pramipexole] | 90%
54 | CC(C)(Sc1cc(C(C)(C)C)c(O)c(C(C)(C)C)c1)Sc1cc(C(C)(C)C)c(O)c(C(C)(C)C)c1 [probucol] | 6%
55 | C[C@@H]1O[C@@H](O[C@@H]2C=C3CC[C@@H]4[C@H](CC[C@]5(C)[C@@H](c6ccc(=O)oc6)CC[C@]45O)[C@@]3(C)CC2)[C@H](O)[C@H](O)[C@H]1O [proscillaridin] | 25%
56 | O=c1c(O)c(-c2ccc(O)c(O)c2)oc2cc(O)cc(O)c12 [quercetin] | 20%
57 | CC[C@@H](C(=O)[C@@H](C)[C@@H](O)[C@H](C)[C@@H]1O[C@@H]([C@@H](CC)C(=O)O)CC[C@@H]1C)[C@H]1O[C@]2(C=C[C@@H](O)[C@]3(CC[C@@](C)([C@H]4CC[C@](O)(CC)[C@H](C)O4)O3)O2)[C@H](C)C[C@@H]1C [salinomycin] | 73%
58 | Cc1c(C(=O)Nc2ccc(N3C[C@@H](C)O[C@@H](C)C3)nc2)cccc1-c1ccc(OC(F)(F)F)cc1 [sonidegib] | 69%
59 | Cn1nnc2c(C(N)=O)ncn2c1=O [temozolomide] | 100%
60 | CSc1ccc2c(c1)N(CCC1CCCCN1C)c1ccccc1S2 (centres unmarked) [thioridazine] | 28%
61 | CN(C)CCOc1ccc(/C(=C(/CCCl)c2ccccc2)c2ccccc2)cc1 [toremifene] | 100%
62 | CC(=O)Nc1cccc(-n2c(=O)n(C3CC3)c(=O)c3c(Nc4ccc(I)cc4F)n(C)c(=O)c(C)c32)c1 [trametinib] | 72%
